Measurements as given in patent publication US8367838B2, “Amines or amino alcohols as GLYT1 inhibitors” (Hoffmann-La Roche Inc., priority 2009, dated 2013).
Structures can show the parent of a compound that is named as a salt.

What follows are molecules tested against T1, mGlyT-1b (Mus musculus, UniProt P28571) (assay: Glycine uptake inhibition assay (mGlyT-1b), [3H]-glycine uptake in transfected Flp-in-CHO cells). Conditions: Flp-in-CHO cells transfected with mGlyT-1b cDNA; [3H]-glycine 60 nM and 25 μM non-radioactive glycine; 20 min preincubation at 22° C.; read-out: IC50 (μM) at GlyT-1; Ic50 (hglyt1b).
T1 construct: host or cells: Flp-in-CHO
T1 sequence (P28571 1-651 isoform P28571-2): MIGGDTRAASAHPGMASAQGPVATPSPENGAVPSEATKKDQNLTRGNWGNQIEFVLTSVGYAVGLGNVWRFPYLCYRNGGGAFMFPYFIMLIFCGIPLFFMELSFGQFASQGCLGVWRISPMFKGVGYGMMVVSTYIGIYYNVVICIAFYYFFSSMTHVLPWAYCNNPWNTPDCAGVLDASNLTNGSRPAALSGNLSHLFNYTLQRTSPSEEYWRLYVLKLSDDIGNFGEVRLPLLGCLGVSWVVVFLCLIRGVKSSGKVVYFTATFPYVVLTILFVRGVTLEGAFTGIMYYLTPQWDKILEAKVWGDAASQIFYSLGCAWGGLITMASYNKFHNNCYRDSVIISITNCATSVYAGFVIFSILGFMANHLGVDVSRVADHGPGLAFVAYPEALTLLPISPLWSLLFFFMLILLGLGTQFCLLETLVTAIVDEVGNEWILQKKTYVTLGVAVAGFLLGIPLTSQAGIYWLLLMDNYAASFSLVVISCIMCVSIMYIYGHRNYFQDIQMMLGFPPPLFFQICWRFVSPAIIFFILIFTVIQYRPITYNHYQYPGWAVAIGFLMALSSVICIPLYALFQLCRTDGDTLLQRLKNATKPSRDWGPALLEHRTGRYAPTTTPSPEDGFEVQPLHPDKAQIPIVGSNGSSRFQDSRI
Assay type: cell-based
Procedure: Nutrient mixture F-12 (Gibco Life-technologies), fetal bovine serum (FBS) 5%, (Gibco life technologies), Penicillin/Streptomycin 1% (Gibco life technologies), Hygromycin 0.6 mg/ml (Gibco life technologies), Glutamine 1 mM Gibco life technologies).
150 mM NaCl, 10 mM Hepes-Tris, pH 7.4, 1 mM CaCl2, 2.5 mM KCl, 2.5 mM MgSO4, 10 mM (+) D-glucose. Flp-in™-CHO (Invitrogen Cat n° R758-07) cells stably transfected with mGlyT1b cDNA.
Glycine Uptake Inhibition Assay (mGlyT-1b)
On day 1 mammalian cells, (Flp-in™-CHO), transfected with mGlyT-1b cDNA, were plated at the density of 40,000 cells/well in complete F-12 medium, without hygromycin in 96-well culture plates. On day 2, the medium was aspirated and the cells were washed twice with uptake buffer (UB). The cells were then incubated for 20 min at 22° C. with either (i) no potential competitor, (ii) 10 mM non-radioactive glycine, (iii) a concentration of a potential inhibitor. A range of concentrations of the potential inhibitor was used to generate data for calculating the concentration of inhibitor resulting in 50% of the effect (e.g. IC50, the concentration of the competitor inhibiting glycine uptake of 50%). A solution was then immediately added containing [^3H]-glycine 60 nM (11-16 Ci/mmol) and 25 μM non-radioactive glycine. The plates were incubated with gentle shaking and the reaction was stopped by aspiration of the mixture and washing (three times) with ice-cold UB. The cells were lysed with scintillation liquid, shaken 3 hours and the radioactivity in the cells was counted using a scintillation counter.

| Compound | IC50 [µM] |
| --- | --- |
| Cc1cc(OC(C)C)ncc1[C@@H](O)[C@@H](N)c1ccc(Cl)c(Cl)c1 (racemic) [Example 30, rac-erythro-[2-Amino-2-(3,4-dichloro-phenyl)-1-(6-isopropoxy-4-methyl-pyridin-3-yl)-ethanoldihydrochloride] | 0.577 |
| Cc1cc([C@@H](O)[C@@H](N)c2ccc(Cl)c(Cl)c2)cnc1OC1CCOC1 (mixture of isomers) [Example 31, rac-erythro-[(rac)-2-Amino-2-(3,4-dichloro-phenyl)-1-[5-methyl-6-(tetrahydro-furan-3-yloxy)-pyridin-3-yl]-ethanoldihydrochloride] | 0.646 |
| CC(C)Oc1ccc([C@@H](O)[C@@H](N)c2ccc(Cl)c(Cl)c2)nc1 (racemic) [Example 32, rac-erythro-[2-Amino-2-(3,4-dichloro-phenyl)-1-(5-isopropoxy-pyridin-2-yl)-ethanoldihydrochloride] | 0.842 |
| N[C@@H](c1ccc(Cl)c(Cl)c1)[C@H](O)c1ccc(OC2CCOCC2)cc1F (racemic) [Example 33, rac-erythro-[2-Amino-2-(3,4-dichloro-phenyl)-1-[2-fluoro-4-(tetrahydro-pyran-4-yloxy)-phenyl]-ethanol hydrochloride] | 0.036 |
| CC1(COc2ccc([C@@H](O)[C@@H](N)c3ccc(Cl)c(Cl)c3)c(F)c2)COC1 (racemic) [Example 34, rac-erythro-[2-Amino-2-(3,4-dichloro-phenyl)-1-[2-fluoro-4-(3-methyl-oxetan-3-ylmethoxy)-phenyl]-ethanol] | 0.023 |
| CC(C)(C)c1ccc([C@@H](O)[C@@H](N)c2ccc(Cl)c(Cl)c2)cc1 (racemic) [Example 37, rac-erythro-[2-Amino-1-(4-tert-butyl-phenyl)-2-(3,4-dichloro-phenyl)-ethanol trifluoroacetate] | 0.876 |
| N[C@@H](c1ccc(Cl)c(Cl)c1)[C@H](O)c1ccc(OC(F)(F)C(F)F)cc1 (racemic) [Example 38, rac-erythro-[2-Amino-2-(3,4-dichlorophenyl)-1-[4-(1,1,2,2-tetrafluoro-ethoxy)-phenyl]-ethanol] | 0.176 |

Further lines, results first:

| IC50 [µM] | Compound |
| --- | --- |
| 0.239 | Cc1cc([C@@H](O)[C@@H](N)c2ccc(Cl)c(Cl)c2)cnc1OC1CCOCC1 (racemic) [Example 26, rac-erythro-[2-Amino-2-(3,4-dichloro-phenyl)-1-[5-methyl-6-(tetrahydro-pyran-4-yloxy)-pyridin-3-yl]-ethanoldihydrochloride] |
| 0.259 | Cc1nc(OC(C)C)ccc1[C@@H](O)[C@@H](N)c1ccc(Cl)c(Cl)c1 (racemic) [Example 27, rac-erythro-[2-Amino-2-(3,4-dichloro-phenyl)-1-(6-isopropoxy-2-methyl-pyridin-3-yl)-ethanoldihydrochloride] |
| 0.33 | N[C@@H](c1ccc(Cl)c(Cl)c1)[C@H](O)c1ccc(OCC2CCCO2)cc1F (mixture of isomers) [Example 28, rac-erythro-[2-Amino-2-(3,4-dichloro-phenyl)-1-[2-fluoro-4-(tetrahydro-furan-2-ylmethoxy)-phenyl]-ethanol, hydrochloride salt] |
| 0.462 | N[C@@H](c1ccc(Cl)c(Cl)c1)[C@H](O)c1ccc(OCC(O)CCCl)cc1F (mixture of isomers) [Example 29, rac-erythro-[1-[4-[(rac)-2-Amino-2-(3,4-dichloro-phenyl)-1-hydroxy-ethyl]-3-fluoro-phenoxy]-4-chloro-butan-2-ol hydrochloride] |
| 0.298 | C[Si](C)(C)c1ccc([C@@H](O)[C@@H](N)c2ccc(Cl)c(Cl)c2)cc1 (racemic) [Example 35, rac-erythro-[2-Amino-2-(3,4-dichloro-phenyl)-1-(4-trimethylsilanyl-phenyl)-ethanol trifluoroacetate] |
| 0.3 | C[C@@](O)(c1ccc(-c2ccccc2)cc1)[C@@H](N)c1ccc(Cl)cc1 (racemic) [Example 36, rac-erythro-[1-Amino-2-biphenyl-4-yl-1-(4-chloro-phenyl)-propan-2-ol trifluoroacetate] |
